# How the values were obtained:
# SST5 = target: T1, SST5 (Homo sapiens, UniProt P35346); assay: GPCR radioligand binding (RLB) assay, somatostatin SST5, [125I]SST-14; settings: 10 micromolar; Example Library 4
# T1 construct: purchased Perkin Elmer BioSignal; host or cells: HEK 293
# Outline: (§1)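 Competition binding against radioligand ([125I]NDP-αMSH for MC4, [125I]SST-14 for SST5) on membranes of HEK 293 cells carrying the human receptor; buffer and incubation time optimized per receptor. Filtration through 0.5% PEI-treated glass fiber, washing, then scintillation counting.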
# MC4 = target: T2, MC4 (Homo sapiens, UniProt P32245); assay: GPCR radioligand binding (RLB) assay, melanocortin MC4, [125I]NDP-αMSH; settings: 10 micromolar; Example Library 4
# T2 construct: purchased Perkin Elmer BioSignal; host or cells: HEK 293
# T2 sequence (P32245 whole entry): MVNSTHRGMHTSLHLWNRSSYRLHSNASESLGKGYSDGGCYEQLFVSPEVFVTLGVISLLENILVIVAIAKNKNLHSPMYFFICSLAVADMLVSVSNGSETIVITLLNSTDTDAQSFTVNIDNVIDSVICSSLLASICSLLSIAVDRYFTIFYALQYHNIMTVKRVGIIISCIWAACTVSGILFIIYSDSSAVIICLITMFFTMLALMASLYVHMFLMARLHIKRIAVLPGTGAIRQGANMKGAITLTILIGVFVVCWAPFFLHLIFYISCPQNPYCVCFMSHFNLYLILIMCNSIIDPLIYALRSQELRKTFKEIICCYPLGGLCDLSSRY
# Outline: as §1
# T1 sequence (P35346 whole entry): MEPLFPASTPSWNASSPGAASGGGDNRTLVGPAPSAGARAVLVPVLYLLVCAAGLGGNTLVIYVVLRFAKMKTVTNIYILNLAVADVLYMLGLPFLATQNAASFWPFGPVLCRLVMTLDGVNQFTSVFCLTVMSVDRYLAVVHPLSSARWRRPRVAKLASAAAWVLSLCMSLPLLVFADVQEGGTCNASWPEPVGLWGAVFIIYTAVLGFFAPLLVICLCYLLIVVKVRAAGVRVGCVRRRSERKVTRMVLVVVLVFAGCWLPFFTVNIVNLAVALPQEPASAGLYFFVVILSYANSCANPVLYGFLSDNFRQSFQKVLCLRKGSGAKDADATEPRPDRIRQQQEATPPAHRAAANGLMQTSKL
smiles,measurement,setting,value
COCC1OC(OCc2ccc(Cl)cc2)C(NC(=O)CCN)C(OCc2ccc3ccccc3c2)C1O (centres unmarked) [Compound 256],SSTS inhibition at 10 micromolar,SST5,+ (Indicates inhibition greater than . . . 50%)
same,MC4 inhibition at 10 micromolar,MC4,+ (Indicates inhibition greater than . . . 50%)
COCC1OC(OCc2ccc(Cl)cc2)C(NC(=O)CCNC(=N)N)C(OCc2ccc3ccccc3c2)C1O (centres unmarked) [Compound 257],SSTS inhibition at 10 micromolar,SST5,+ (Indicates inhibition greater than . . . 50%)
same,MC4 inhibition at 10 micromolar,MC4,+ (Indicates inhibition greater than . . . 50%)
COCC1OC(OCc2ccc(Cl)cc2)C(NC(=O)CCCN)C(OCc2ccc3ccccc3c2)C1O (centres unmarked) [Compound 258],SSTS inhibition at 10 micromolar,SST5,+ (Indicates inhibition greater than . . . 50%)
same,MC4 inhibition at 10 micromolar,MC4,+ (Indicates inhibition greater than . . . 50%)
COCC1OC(OCc2ccc(Cl)cc2)C(NC(=O)CCCNC(=N)N)C(OCc2ccc3ccccc3c2)C1O (centres unmarked) [Compound 259],SSTS inhibition at 10 micromolar,SST5,+ (Indicates inhibition greater than . . . 50%)
same,MC4 inhibition at 10 micromolar,MC4,+ (Indicates inhibition greater than . . . 50%)
COCC1OC(OCCc2ccccc2)C(NC(=O)CCNC(=N)N)C(OCc2ccccc2)C1O (centres unmarked) [Compound 263],SSTS inhibition at 10 micromolar,SST5,+ (Indicates inhibition greater than . . . 50%)
same,MC4 inhibition at 10 micromolar,MC4,+ (Indicates inhibition greater than . . . 50%)
COCC1OC(OCCc2ccccc2)C(NC(=O)CCCNC(=N)N)C(OCc2ccccc2)C1O (centres unmarked) [Compound 265],SSTS inhibition at 10 micromolar,SST5,+ (Indicates inhibition greater than . . . 50%)
same,MC4 inhibition at 10 micromolar,MC4,+ (Indicates inhibition greater than . . . 50%)
COCC1OC(OCCc2ccccc2)C(NC(=O)CNC(=N)N)C(OCc2ccc(Cl)cc2)C1O (centres unmarked) [Compound 267],SSTS inhibition at 10 micromolar,SST5,+ (Indicates inhibition greater than . . . 50%)
same,MC4 inhibition at 10 micromolar,MC4,+ (Indicates inhibition greater than . . . 50%)
COCC1OC(OCCc2ccccc2)C(NC(=O)CCN)C(OCc2ccc(Cl)cc2)C1O (centres unmarked) [Compound 268],SSTS inhibition at 10 micromolar,SST5,+ (Indicates inhibition greater than . . . 50%)
same,MC4 inhibition at 10 micromolar,MC4,+ (Indicates inhibition greater than . . . 50%)
COCC1OC(OCCc2ccccc2)C(NC(=O)CCNC(=N)N)C(OCc2ccc(Cl)cc2)C1O (centres unmarked) [Compound 269],SSTS inhibition at 10 micromolar,SST5,+ (Indicates inhibition greater than . . . 50%)
same,MC4 inhibition at 10 micromolar,MC4,+ (Indicates inhibition greater than . . . 50%)
COCC1OC(OCCc2ccccc2)C(NC(=O)CCCN)C(OCc2ccc(Cl)cc2)C1O (centres unmarked) [Compound 270],SSTS inhibition at 10 micromolar,SST5,+ (Indicates inhibition greater than . . . 50%)
same,MC4 inhibition at 10 micromolar,MC4,+ (Indicates inhibition greater than . . . 50%)
COCC1OC(OCCc2ccccc2)C(NC(=O)CCCNC(=N)N)C(OCc2ccc(Cl)cc2)C1O (centres unmarked) [Compound 271],SSTS inhibition at 10 micromolar,SST5,+ (Indicates inhibition greater than . . . 50%)
same,MC4 inhibition at 10 micromolar,MC4,+ (Indicates inhibition greater than . . . 50%)
COCC1OC(OCCc2ccccc2)C(NC(=O)CN)C(OCc2ccc(-c3ccccc3)cc2)C1O (centres unmarked) [Compound 272],SSTS inhibition at 10 micromolar,SST5,+ (Indicates inhibition greater than . . . 50%)
same,MC4 inhibition at 10 micromolar,MC4,+ (Indicates inhibition greater than . . . 50%)
COCC1OC(OCCc2ccccc2)C(NC(=O)CNC(=N)N)C(OCc2ccc(-c3ccccc3)cc2)C1O (centres unmarked) [Compound 273],SSTS inhibition at 10 micromolar,SST5,+ (Indicates inhibition greater than . . . 50%)
same,MC4 inhibition at 10 micromolar,MC4,+ (Indicates inhibition greater than . . . 50%)
COCC1OC(OCCc2ccccc2)C(NC(=O)CN)C(OCc2ccc(-c3ccccc3)cc2)C1O (centres unmarked) [Compound 274],SSTS inhibition at 10 micromolar,SST5,+ (Indicates inhibition greater than . . . 50%)
same,MC4 inhibition at 10 micromolar,MC4,+ (Indicates inhibition greater than . . . 50%)
COCC1OC(OCCc2ccccc2)C(NC(=O)CCNC(=N)N)C(OCc2ccc(-c3ccccc3)cc2)C1O (centres unmarked) [Compound 275],SSTS inhibition at 10 micromolar,SST5,+ (Indicates inhibition greater than . . . 50%)
same,MC4 inhibition at 10 micromolar,MC4,+ (Indicates inhibition greater than . . . 50%)
COCC1OC(OCCc2ccccc2)C(NC(=O)CCCN)C(OCc2ccc(-c3ccccc3)cc2)C1O (centres unmarked) [Compound 276],SSTS inhibition at 10 micromolar,SST5,+ (Indicates inhibition greater than . . . 50%)
same,MC4 inhibition at 10 micromolar,MC4,+ (Indicates inhibition greater than . . . 50%)
COCC1OC(OCCc2ccccc2)C(NC(=O)CCCNC(=N)N)C(OCc2ccc(-c3ccccc3)cc2)C1O (centres unmarked) [Compound 277],SSTS inhibition at 10 micromolar,SST5,+ (Indicates inhibition greater than . . . 50%)
same,MC4 inhibition at 10 micromolar,MC4,+ (Indicates inhibition greater than . . . 50%)
COCC1OC(OCCc2ccccc2)C(NC(=O)CN)C(OCc2ccc3ccccc3c2)C1O (centres unmarked) [Compound 278],SSTS inhibition at 10 micromolar,SST5,+ (Indicates inhibition greater than . . . 50%)
same,MC4 inhibition at 10 micromolar,MC4,+ (Indicates inhibition greater than . . . 50%)
COCC1OC(OCCc2ccccc2)C(NC(=O)CNC(=N)N)C(OCc2ccc3ccccc3c2)C1O (centres unmarked) [Compound 279],SSTS inhibition at 10 micromolar,SST5,+ (Indicates inhibition greater than . . . 50%)
same,MC4 inhibition at 10 micromolar,MC4,+ (Indicates inhibition greater than . . . 50%)
COCC1OC(OCCc2ccccc2)C(NC(=O)CN)C(OCc2ccc3ccccc3c2)C1O (centres unmarked) [Compound 280],SSTS inhibition at 10 micromolar,SST5,+ (Indicates inhibition greater than . . . 50%)
same,MC4 inhibition at 10 micromolar,MC4,+ (Indicates inhibition greater than . . . 50%)
COCC1OC(OCCc2ccccc2)C(NC(=O)CCNC(=N)N)C(OCc2ccc3ccccc3c2)C1O (centres unmarked) [Compound 281],SSTS inhibition at 10 micromolar,SST5,+ (Indicates inhibition greater than . . . 50%)
same,MC4 inhibition at 10 micromolar,MC4,+ (Indicates inhibition greater than . . . 50%)
COCC1OC(OCCc2ccccc2)C(NC(=O)CCCN)C(OCc2ccc3ccccc3c2)C1O (centres unmarked) [Compound 282],SSTS inhibition at 10 micromolar,SST5,+ (Indicates inhibition greater than . . . 50%)
same,MC4 inhibition at 10 micromolar,MC4,+ (Indicates inhibition greater than . . . 50%)
COCC1OC(OCCc2ccccc2)C(NC(=O)CCCNC(=N)N)C(OCc2ccc3ccccc3c2)C1O (centres unmarked) [Compound 283],SSTS inhibition at 10 micromolar,SST5,+ (Indicates inhibition greater than . . . 50%)
same,MC4 inhibition at 10 micromolar,MC4,+ (Indicates inhibition greater than . . . 50%)
COCC1OC(OCc2ccc3ccccc3c2)C(NC(=O)CNC(=N)N)C(OCc2ccccc2)C1O (centres unmarked) [Compound 285],SSTS inhibition at 10 micromolar,SST5,+ (Indicates inhibition greater than . . . 50%)
same,MC4 inhibition at 10 micromolar,MC4,+ (Indicates inhibition greater than . . . 50%)
COCC1OC(OCc2ccc3ccccc3c2)C(NC(=O)CN)C(OCc2ccccc2)C1O (centres unmarked) [Compound 286],SSTS inhibition at 10 micromolar,SST5,+ (Indicates inhibition greater than . . . 50%)
same,MC4 inhibition at 10 micromolar,MC4,+ (Indicates inhibition greater than . . . 50%)
COCC1OC(OCc2ccc3ccccc3c2)C(NC(=O)CCNC(=N)N)C(OCc2ccccc2)C1O (centres unmarked) [Compound 287],SSTS inhibition at 10 micromolar,SST5,+ (Indicates inhibition greater than . . . 50%)
same,MC4 inhibition at 10 micromolar,MC4,+ (Indicates inhibition greater than . . . 50%)
COCC1OC(OCc2ccc3ccccc3c2)C(NC(=O)CNC(=N)N)C(OCc2ccc(Cl)cc2)C1O (centres unmarked) [Compound 291],SSTS inhibition at 10 micromolar,SST5,+ (Indicates inhibition greater than . . . 50%)
same,MC4 inhibition at 10 micromolar,MC4,+ (Indicates inhibition greater than . . . 50%)
COCC1OC(OCc2ccc3ccccc3c2)C(NC(=O)CCNC(=N)N)C(OCc2ccc(Cl)cc2)C1O (centres unmarked) [Compound 293],SSTS inhibition at 10 micromolar,SST5,+ (Indicates inhibition greater than . . . 50%)
same,MC4 inhibition at 10 micromolar,MC4,+ (Indicates inhibition greater than . . . 50%)
COCC1OC(OCc2ccc3ccccc3c2)C(NC(=O)CCCN)C(OCc2ccc(Cl)cc2)C1O (centres unmarked) [Compound 294],SSTS inhibition at 10 micromolar,SST5,+ (Indicates inhibition greater than . . . 50%)
same,MC4 inhibition at 10 micromolar,MC4,+ (Indicates inhibition greater than . . . 50%)
COCC1OC(OCc2ccc3ccccc3c2)C(NC(=O)CCCNC(=N)N)C(OCc2ccc(Cl)cc2)C1O (centres unmarked) [Compound 295],SSTS inhibition at 10 micromolar,SST5,+ (Indicates inhibition greater than . . . 50%)
same,MC4 inhibition at 10 micromolar,MC4,+ (Indicates inhibition greater than . . . 50%)
COCC1OC(OCc2ccc3ccccc3c2)C(NC(=O)CNC(=N)N)C(OCc2ccc(-c3ccccc3)cc2)C1O (centres unmarked) [Compound 297],SSTS inhibition at 10 micromolar,SST5,+ (Indicates inhibition greater than . . . 50%)
same,MC4 inhibition at 10 micromolar,MC4,+ (Indicates inhibition greater than . . . 50%)
COCC1OC(OCc2ccc3ccccc3c2)C(NC(=O)CN)C(OCc2ccc(-c3ccccc3)cc2)C1O (centres unmarked) [Compound 298],SSTS inhibition at 10 micromolar,SST5,+ (Indicates inhibition greater than . . . 50%)
same,MC4 inhibition at 10 micromolar,MC4,+ (Indicates inhibition greater than . . . 50%)
COCC1OC(OCc2ccc3ccccc3c2)C(NC(=O)CCNC(=N)N)C(OCc2ccc(-c3ccccc3)cc2)C1O (centres unmarked) [Compound 299],SSTS inhibition at 10 micromolar,SST5,+ (Indicates inhibition greater than . . . 50%)
same,MC4 inhibition at 10 micromolar,MC4,+ (Indicates inhibition greater than . . . 50%)
COCC1OC(OCc2ccc3ccccc3c2)C(NC(=O)CCCN)C(OCc2ccc(-c3ccccc3)cc2)C1O (centres unmarked) [Compound 300],SSTS inhibition at 10 micromolar,SST5,+ (Indicates inhibition greater than . . . 50%)
same,MC4 inhibition at 10 micromolar,MC4,+ (Indicates inhibition greater than . . . 50%)

# From patent publication US7994140B2, “Classes of compounds that interact with GPCRs” (Alchemia Limited, priority 2002, dated 2011)
